Key:
Format in all cases: cell-based, human
[1] = system: Raji cells; experiment: Signaling by Western blot
Procedure: (§1) Raji and SU-DHL-6 cells were treated with X-370 for 1 h (left panel) or treated with 0.5 μM X-370 for indicated times (middle panel). Right panel, Raji cells were incubated in fresh medium following treatment with 0.5 μM X-370 for 1 h. Indicated proteins were detected. (B) Raji-R (the rituximab-resistant derivatives of Raji cells) cells were resistant to X-370. The activity of X-370 on the proliferation of Raji parent and Raji-R cells was determined by CCK-8 assay as described in the methods section. (C) X-370 blocked phosphorylation of Akt but not Erk1/2 in Raji-R cells. Raji-R cells were treated with X-370 for 1h and indicated proteins were detected. Data shown are representative from three independent experiments.
(§2) Figure 5 Inhibition of Erk1/2 phosphorylation by X-370 contributed to its antiproliferative activity (A-C) X-370 inhibited Erk1/2 phosphorylation via PI3K-PDK1-MEK1/2 cascade but not the PI3K-Gab1 positive feedback loop. (A) Raji and SU-DHL-6 cells were exposed to 1 μM X370 for 3 h and protein fraction from cellular membrane was separated using Native Membrane Protein Extraction Kit and probed. WCL: whole cell lysate. (B) Inhibition of PDK1 or MEK1/2 abrogated Erk1/2 phosphorylation. Cells were treated with pharmacological inhibitors of Raf (AZ 628, PLX4032), MEK1/2 (AZD6244), p90RSK (BI-D1870), PI3Kδ (X-370), PDK1 (BX-912), Akt (MK-2206), mTOR (AZD8055) or mTORC1 (Rapamycin) respectively and indicated proteins were detected. (C) X-370 disrupted the association between PDK1 and MEK1/2. Raji cells were treated with 1 μM X370 for 1 h and cell lysates were immunoprecipitated with anti-PDK1 antibody and indicated proteins were detected. WCL: whole cell lysate. (D-F) Inhibition of Erk1/2 phosphorylation was required for the anti-proliferative activity of X-370. (D) Raji cells ectopically expressing a constitutively activated phospho-mimic MEK1 mutant (MEK1 S202D/S204D or MEK DD) were incubated with X-370 or AZD6244 for 1 h and then subjected to Western blot. (E) Raji and Raji MEK DD cells were treated with X-370 for 72 h and cell proliferation was detected by CCK-8 assay. (F) Raji MEK DD cells were treated with X-370 and AZD6244 and cell proliferation was detected by CCK-8 assay. Data were show as mean ± SD of three independent experiments. *: p < 0.05 determined by t-tests at each data point. […]
(§3) Cells were treated as indicated conditions and then subjected to lysate to perform standard Western blot as described previously1. Briefly, whole-cell lysates and SDS-loading buffer diluted cell fractions were analyzed on SDS-PAGE gels. Transfer to nitrocellulose membranes, nonfat milk blocking, probing with indicated primary antibodies and the corresponding HRP-conjugated second antibodies.
(§4) Chemiluminescence were performed and captured using ImageQuant LAS 4000 (GE healthcare Life Sciences, Piscataway, NJ, USA) and band intensity was measure both with ImageQuant™ TL (GE Healthcare Life Sciences) 2. […]
(§5) (also on this page, place not known: PI3Kδ -dependent MEK1/2 - B -cell previously 1. whole -cell SDS -loading SDS -PAGE HRP -conjugated (G E A B Val828 Trp760 Thr750 Met752 Tyr813 affinity pocket specificity pocket hinge Glu826 CAL-101 X-370) […]
(§6) (1 picture or pasted object on this page, not shown here)

[2] = system: SU-DHL-6 cells; experiment: Signaling by Western blot
Procedure: as §1, §2, §3, §4, §5, §6

[3] = system: Rh30-Myr-p110δ cells; experiment: Akt phosphorylation in isogenic Rh30-Myr-p110 cells (Western blot); conditions: panel of isogenic Rh30-Myr-p110α/β/γ/δ cells, 1 h
Text: To assess the selectivity of X-370 in the context of an isogenic cellular background, we generated a panel of Rh30 human rhabdomyosarcoma cell lines each of which stably expresses a single myristoylated (Myr)-epitope tagged p110 human class I PI3K catalytic subunit, termed as Rh30-Myr-p110α, Rh30-Myr-p110β, Rh30-Myr-p110γ or Rh30-Myr-p110δ. In these cells, endogenous PI3K is not activated under serum-free culture conditions, whereas the ectopically expressed p110 isoforms are membrane-anchored and constitutively active due to myristoylation at N-terminal. Utilizing this cell panel, isoform-specific PI3K activity can be determined for any given inhibitor[25]. These cells were treated with X-370 and phosphorylated Akt was detected as the readout of PI3K activity. X-370 inhibited phosphorylation of Akt at both Thr308 and Ser473 in a dose-dependent manner in four tested cell lines (Figure 2A). […] Similar property was also observed in CAL-101 (Figure S2).
Cell lysates were probed with indicated antibodies. The IC50 values were calculated based on relative band intensity measured with ImageQuant™ TL (GE Healthcare Life Sciences, Piscataway, NJ) (B). Data shown are mean values from three independent experiments. (C, D, E, F) X-370 blocked stimuli-triggered PI3Kδ activation. MEF cells and THP-1 were starved in serum-free medium for 12 h or 4 h respectively and X-370 were added for an additional 1 h treatment following stimulation of IGF-1 at 100 ng/ml for MEF cells (C), LPA at 10 μM for MEF cells (D), MCP-1 at 100ng/ml for THP-1 (E) and M-CSF at 50 ng/ml for THP-1 (F). Similar results were derived from 3 independent experiments. TEXT PRINTED IN THE PICTURE: (B) X-370: IC50 (μM) in Rh30-Myr-p110s, Akt pT308, PI3Kα: 0.68; IC50 (μM) in Rh30-Myr-p110s, Akt pT308, PI3Kβ: 0.4; IC50 (μM) in Rh30-Myr-p110s, Akt pT308, PI3Kγ: 0.46; IC50 (μM) in Rh30-Myr-p110s, Akt pT308, PI3Kδ: 0.032; IC50 (μM) in Rh30-Myr-p110s, Akt pS473, PI3Kα: 0.53; IC50 (μM) in Rh30-Myr-p110s, Akt pS473, PI3Kβ: 0.29; IC50 (μM) in Rh30-Myr-p110s, Akt pS473, PI3Kγ: 0.23; IC50 (μM) in Rh30-Myr-p110s, Akt pS473, PI3Kδ: 0.02 DOUBTS OF THE COPYIST ABOUT THIS PICTURE: Panel B prints no substance label in the table itself; the label X-370 is taken from the other panels of the same picture, where it is the only substance printed. […]
as §3, §4, §5
(1 picture or pasted object on this page, not shown here) […]
in serum-free medium for 12 h and then incubated with serially diluted CAL -101 for an additional 1 h.
Cell lysates were probed with indicated antibodies. The IC50 values were calculated based on relative band intensity measured with ImageQuant™ TL (GE Healthcare Life Sciences, Piscataway, NJ). Data shown are mean values from three independent experiments.
Table S1: Inhibitory activity of X-370 against protein kinases […]
kinome at 10 μM. The relative kianse activity left in the presence of 10 μM were shown (Mi llipore […]
Kinase activity (% of control) Kinase activity (% of control) Kinase activity (% of control) […]
CDK1/cyclinB 97 Lck activated 89 Ret 125 […]

[4] = system: Raji MEK DD cells; experiment: Erk1/2 phosphorylation in Raji cells expressing MEK DD (Western blot); conditions: 1 h
Procedure: as §2, with “(D-F) Inhibition of Erk1/2 phosphorylation was required for the anti-proliferative activity of X-370. (D) Raji cells ectopically expressing a constitutively activated phospho-mimic MEK1 mutant (MEK1 S202D/S204D or MEK DD) were incubated with X-370 or AZD6244 for 1 h and then subjected to Western blot.” left out

[5] = system: Raji MEK DD cells; experiment: Proliferation of Raji MEK DD cells (CCK-8); conditions: Raji MEK DD; 1 μM, 72 h, CCK-8
Procedure: as §2, with “(C) X-370 disrupted the association between PDK1 and MEK1/2.” left out, “WCL: whole cell lysate. (D-F) Inhibition of Erk1/2 phosphorylation was required for the anti-proliferative activity of X-370. (D) Raji cells ectopically expressing a constitutively activated phospho-mimic MEK1 mutant (MEK1 S202D/S204D or MEK DD) were incubated with X-370 or AZD6244 for 1 h and then subjected to Western blot.” left out
luciferase. Raji cells expressing MEK DD or luciferase were incubated with 1 μM AZD6244 or DMSO control respectively for 72 h, and then cell viability were assessed by CCK-8 reagent. […]

[6] = system: Raji cells expressing luciferase; experiment: Viability of Raji cells expressing luciferase (CCK-8); conditions: 1 μM, 72 h
Procedure: Cell viability was assessed using Cell Counting Kit (CCK-8, Dojindo, Japan) following the manufacturer's protocol and OD values were measured with a Spectramax M5 plate reader (Molecular Devices, Sunnyvale, CA)[45].
Figure S6: CAL-101 inhibited both Akt and Erk1/2 signaling in Raji and SU-DHL -6 cells. Raji and SU-DHL-6 cells were incubated with CAL-101 for an hour and then collected to perform Western blot, the […]
luciferase. Raji cells expressing MEK DD or luciferase were incubated with 1 μM AZD6244 or DMSO control respectively for 72 h, and then cell viability were assessed by CCK-8 reagent. NS indicated no significance. Data were show as mean + SD of three independent experiments. […]

`CC[C@H](Nc1ncnc2[nH]cnc12)c1nc2cccc(F)c2c(=O)n1-c1ccccc1` [CAL-101, idelalisib, reference compound] was tested, and the “phosphorylation of Akt and Erk1/2” value ([1]; Raji, 1 h) was “downregulated at low nanomolar concentrations”, the “phosphorylation of Akt and Erk1/2” value ([2]; SU-DHL-6, 1 h) was “downregulated at low nanomolar concentrations” and the “selectivity against PI3Kδ-mediated signaling at cellular level” value [3] was “highly selective”.

`Cn1cnc2c(F)c(Nc3ccc(Br)cc3Cl)c(C(=O)NOCCO)cc21` [AZD6244] was tested, and the “phosphorylated Erk1/2, panel of pathway inhibitors” value ([1]; Raji (Figure 5B)) was “down-regulated”, the “phosphorylated Erk1/2, panel of pathway inhibitors” value ([2]; SU-DHL-6 (Figure 5B)) was “down-regulated” and the Erk1/2 phosphorylation [4] was “abolished”. For the same molecule, the antiproliferative activity alone [5] was “little antiproliferative activity” and the antiproliferative activity alone [6] was “little antiproliferative activity”.

Source: PMC4279406, “Simultaneous targeting of PI3Kδ and a PI3Kδ-dependent MEK1/2-Erk1/2 pathway for therapy in pediatric B-cell acute lymphoblastic leukemia” (Oncotarget, 2014)
